Data reported in patent US20170168056A1, “METHODS AND COMPOSITIONS FOR DETECTING AND MODULATING CANCER CELLS” (Massachusetts Institute of Technology, priority 2015, published 2017).

Tests used:
MDA-MB-231 cells = experiment: Cell viability assay (Prestoblue) in MDA-MB-231 cells expressing GFP, GFP-Mena or GFP-Mena^INV; conditions: 72 h of treatment with Taxol at 100 nM, 1 μm or 10 μM
Experimental: Cell viability assays were performed in a 96-well plate. 5,000 cells were plated per well and treated with drug 24 hours later. Cell viability was assayed 72 hours later using the PrestoBlue Cell Viability Reagent (Life Technologies), according to manufacturer's protocol. Fluorescence was measured and normalized to cells exposed to vehicle. The activity area was calculated from doseresponse plots using Matlab. All measurements were repeated in triplicate.

T47D cells = experiment: Cell viability of T47D cells expressing ShCtrl or ShMENA after paclitaxel; type: cell-based, human; conditions: T47D ShMENA vs ShCtrl, 72 hours
Experimental: Cell Culture. MDA-MB-231 cells were purchased directly from the ATCC in June 2012, where cell lines are authenticated by short tandem repeat profiling. These cells were not reauthenticated by our lab and were cultured in DMEM with 10% FBS (Hyclone). Cell line generation and FACS were performed as previously described (32). […] SUM159 cells were obtained from Joan Brugge's lab at Harvard Medical School (January 2011) and were not reauthenticated in our lab. SUM159 cells were cultured according to the ATCC protocols. T47D cells were purchased at ATCC, where cell lines are authenticated by short tandem repeat profiling. They were cultured according to the manufacturer's protocol, and not reauthenticated in our lab. […]
MENA and MENA^INV are associated with increased survival during paclitaxel treatment in vitro. […] MENA and MENA^INV were determined to be widely expressed in all main breast cancer subtypes, as measured by mRNA from TCGA samples, as well as at the protein level by immunohistochemistry (FIGS. 28A, 28B, 28C), with slightly higher expression in patients with Her2+ breast cancer. […] Under the conditions we used, MENA11a co-migrates with the 80 kDa MENA, thus the intensity of the measured the 80 kDa MENA, detected with an antibody known to recognize all MENA isoforms, represents the total amount of 80 kDa MENA plus MENA11a in the cell lines that express both isoforms. […]

[1] = tested on: human breast cancer cell lines; experiment: Cell viability (Taxol/paclitaxel efficacy) across a panel of breast cancer cell lines versus endogenous Mena expression; type: cell-based; conditions: 9 breast cancer cell lines, 72 h treatment
From the text: Endogenous levels of Mena in breast cancer cell lines correlate with their resistance to Taxol treatment. Initial experiments relied on ectopic expression in a single cell line, we examined a panel breast cancer cell lines with differing levels of endogenous Mena expression for sensitivity to Taxol. […] Essentially, low endogenous Mena correlates with low resistance/reduced viability in Taxol treated cells, while high endogenous Mena correlates with high resistance/viability in Taxol treated cells (FIG. 1F).
Cell viability assay. […] All measurements were repeated in triplicate.
MENA and MENA^INV are associated with increased survival during paclitaxel treatment in vitro. Whether endogenous MENA and MENA^INV expression levels were associated with paclitaxel resistance was examined. MENA and MENA^INV were determined to be widely expressed in all main breast cancer subtypes, as measured by mRNA from TCGA samples, as well as at the protein level by immunohistochemistry (FIGS. 28A, 28B, 28C), with slightly higher expression in patients with Her2+ breast cancer. […] Under the conditions we used, MENA11a co-migrates with the 80 kDa MENA, thus the intensity of the measured the 80 kDa MENA, detected with an antibody known to recognize all MENA isoforms, represents the total amount of 80 kDa MENA plus MENA11a in the cell lines that express both isoforms. […]

[2] = tested on: MDA-MB-231 xenograft tumors; experiment: Multiphoton intravital imaging of motile tumor cells; type: in vivo, mouse
Experimental: Intravital imaging. Intravital multiphoton imaging was performed as described previously (Oudin M J, et al. Tumor cell-driven extracellular matrix remodeling enables haptotaxis during metastatic progression. Cancer Discov. 2016; Available from: www.ncbi.nlm.nih.gov/pubmed/26811325) using a 25×1.05 NA water immersion objective with correction lens. After exposing the tumor with a skin flap surgery, 30 minute movies were captured. The number of motile cells in each field of view were count in ten 30 minute time-lapse movies using ImageJ. Motile cells were cells who show any displacement of the nucleus and cell protrusion activity. Data were pooled from 2-4 mice per tumor group, with 4-10 fields imaged per mouse.
MENA and MENA^INV drive increased cell motility and metastasis during tumor progression. Therefore, whether MENA isoform expression impacts cell migration and dissemination after paclitaxel treatment was examined.

ERK, Akt = experiment: Western blot for pERK Y204, ERK, pAkt473 and Akt; type: cell-based, human
Experimental: Western blot. Cells were lysed in 25 mM Tris, 150 mM NaCl, 10% glycerol, 1% NP 40 and […] EDTA with a protease Mini-complete protease inhibitors (Roche) and a phosphatase inhibitor cocktail (PhosSTOP, Roche) at 4° C. for 20 minutes. Protein lysates were separated by SDS-PAGE, transferred to a nitrocellulose membrane and blocked with Odyssey Blocking Buffer (LiCor). Membranes were incubated with primary antibody overnight at 4° C. and Licor secondary antibodies at room temperature for 1 hour. Protein level intensity was measured with Image J.
The MAPK signaling cascade is among the key pathways known to interact with MTs. Both ERK1/2 interact with MTs; MT stabilization by paclitaxel increases ERK phosphorylation and, in turn, ERK pathway activation increases MT dynamics.

[3] = 72 hours of paclitaxel treatment, all three cell lines

Q: With CC(=O)O[C@H]1C(=O)[C@@]2(C)[C@H]([C@H](OC(=O)c3ccccc3)[C@]3(O)C[C@H](OC(=O)[C@H](O)[C@@H](NC(=O)c4ccccc4)c4ccccc4)C(C)=C1C3(C)C)[C@]1(OC(C)=O)CO[C@@H]1C[C@@H]2O [paclitaxel] as the compound, how does the “fraction of viable GFP-Mena or GFP-Mena^INV cells higher than fraction of viable GFP (Control) cells” value (MDA-MB-231 cells) read?
A: The value was “at least 65%”.

Q: What about the “sensitivity to paclitaxel after reducing all MENA isoform levels” value (T47D cells) of the same compound?
A: Its value is “more sensitive to paclitaxel”.

Q: What about the “correlation between drug efficacy (cell survival) and endogenous Mena expression” value [1] of the same compound?
A: Its value is “significant inverse correlation”.

Q: What about the “correlation between drug efficacy (cell survival) and endogenous Mena expression” value ([1]; listed as Taxol) of the same compound?
A: The value was “highly significant anti-correlation”.

Q: What about the “number of cells moving within tumors” value ([2]; 231-Control tumors) of the same compound?
A: The value was “significantly reduced”.

Q: And the “motility of tumor cells in vivo” value ([2]; 231-MENA and 231-MENA^INV tumors)?
A: Its value is “not affected”.

Q: What about the “total ERK levels” value (ERK, Akt; 72 hours of paclitaxel treatment) of the same compound?
A: The value was “unchanged”.

Q: And the “pERK Y204 levels” value (ERK, Akt; 72 hours of paclitaxel treatment (10 or 100 nM))?
A: The value was 231-MENA and 231-MENA^INV cells had higher levels of pERK Y204 relative to 231-Control cells.

Q: What about the pAkt473 levels (ERK, Akt; [3]) of the same compound?
A: The pAkt473 levels was “decreased pAkt473 levels equally”.

Q: What about the “total Akt levels” value (ERK, Akt; [3]) of the same compound?
A: The value was “without significantly changing”.
